Experimental data published in patent US5349070A, “Salicylic acid-maltol conjugates” (priority 1993, dated 1994).

Columns and labels:
[1] = tested on: Malondialdehyde (MDA) Generation in Mouse Liver Homogenate; test: Inhibition of malondialdehyde (MDA) generation (antioxidant activity), in vitro; format: biochemical, mouse (male ICR)
Description: Animal: male ICR mouse weighing 20-25 g
1. Maltol (10% DMF saline)
2. Aspirin (10% DMF saline).
TBA reagents: Thiobarbituric acid (0.3%) and SDS (0.4%) were dissolved in 7.5% acetate buffer (pH 4.0)
Antioxidant activities were determined following the method of Okawa et al. (Biochemistry (Japan) 1977), 49(8), 829). Mouse livers were homogenized with ten volumes of saline. To 10 ml of homogenate was added 10 ml of the sample solution, and the mixture was incubated at 37° C. for 3 hrs. Then 3.6 ml of TBA reagents were added to the mixture and the resulting mixture was heated at 98° C. for 1 hr. After the temperature was reduced to 24° C., the reaction mixture was extracted with 2 ml of butanol and the butanol phase was separated by centrifugation. The absorbance at 532 nm of the butanol phase was measured.

[2] = Bleeding time; format: in vivo; details: for Bleeding Time: in s (unit assumed); for percent increment of bleeding time: P < 0.05
Description: To the experimental groups, equivalent doses of compound A and aspirin were administered separately for 10 days.

[3] = Gastric ulceration experiment; format: in vivo, rat (male Sprague Dawley); details: for Ulcer Index: mean ± S.E.; for gastric ulceration: compound A versus aspirin at four times lower dose
Description: Animal: Male Sprague Dawley rats weighing 160-210 g (6 rats as a group).
Reference: Aspirin (200 mg/kg in 1% CMC).
(§1) Medication: Oral administration.
Rats were deprived of food but allowed free access to water for 24 hrs (water was removed 2 hrs before experiments). Samples suspended in 1% CMC solution […]. The stomachs were then inflated by injecting 10 ml of 2% formalin through the esophageal orifice and immersed in 2% formalin for 10 min. Subsequently, the stomachs were incised along the greater curvature and the length of each leison in the glandular portion was measured. The sum of the lengths (mm) of all lesions for each rat was used as the ulcer index.

[4] = background statement; cited from earlier work
[5] = tested on: platelets; test: Antithrombotic activity (thrombin-induced platelet aggregation); format: cell-based, rat (male Sprague Dawley); details: 1×10^-3 M
Description: Animal: Male Sprague Dawley rate weighing 180-250 g.
Sample: Compound A (1×10^-3 M) in 5% DMF solution.
Rats were anaesthetized with ether and 9 volumes of blood were collected by heart puncture with 1 volume of 3.12% sodium citrate. Combined blood samples were centrifuged at 1,200 rpm for 20 min at 4° C. to obtain platelet-rich plasma. Following centrifugation at 3,000 rpm for 10 min at 4° C., the resulting precipitates (platelets) were resuspended in 0.01M phosphate-buffered saline (pH 7.4). To 1 ml of this solution was added 0.1 ml of the sample solution. After 30 min incubation at 37° C., 10 units of thrombin was added and the reaction mixture was incubated for 1 hr.

[6] = tested on: Carrageenin-induced edema; test: Antiinflammatory activity by Carrageenin-induced edema test; format: in vivo, rat (male Sprague Dawley); details: for % Increment of Edema: mean ± S.E.
Description: Animal: Male Sprague Dawley rats weighing approx. 170 g (5 rats as a group). […]
as §1
The inhibitions of Carrageenin-induced edema by compound A and aspirin was measured according to Winster et al. (Winter, C. A., Risley, E. A. and Nuss, G. W. (1963), J: Pharmaco. Exptl. Therap., 141, 369). Samples were administered orally at 6 hrs and 30 min before Carrageenin injection. Edema was induced with subcutaneous injection of 0.05 ml of 1% Carrageenin in saline solution in a hind paw of rat. Then, the volume of edema was measured at time intervals.

[7] = General activities and side effects stated in the description; details: concluding statement
[8] = Acute toxicity test; format: in vivo; details: oral, mouse
[9] = tested on: BSA; test: Protein stabilizing activity (heat denaturation of BSA); format: biochemical; details: 1×10^-3 M in 5% DMF; data not shown
Description: Sample: Compound A (1×10^-3 M in 5% DMF solution
The protein stabilizng activity of the sample was analyzed as described by Mizushima (Mizushima, Y. (1965), Lancet, 1, 169). Briefly, 2 ml of 0.75% BSA in 0.1M phosphate-buffered saline (pH 5.3) was mixed with 1 ml of appropriately diluted test sample solution. After standing at room temperature for 15 min, the reaction mixture was incubated at 66.5°C. and 0° C. for 3 min and 15 min, respectively. The degree of heat denaturation of BSA was estimated by the turbidity of colloidal precipitate, whose absorbance at 570 nm was measured.

[10] = tested on: Typhoid vaccine pyrogen; test: Antipyretic activity (typhoid vaccine pyrogen, rectal temperature); format: in vivo, mouse (male ICR); details: oral, mouse, FIG. 3; compound A 160, 500 mg/kg, aspirin 100 mg/kg
Description: Animal: Male ICR mouse weighing 17-21 g (5 mice as a group).
Sample: Compound A (160 mg/kg, 500 mg/kg in 1% CMC).
Reference: Aspirin (100 mg/kg in 1% CMC).
Pyrogen: Typhoid vaccine (0.1 ml/mouse, i.p.).
Antipyretic activities were measured according to Winter et al. with some modifications (Winter, C. A. et al. (1963), J. Pharmacol Exptl. Therap., 141, […]). Rectal temperature was measured using digitalized thermometer inserted 3 cm deep at one hr intervals. Typhoid vaccine was injected to mouse i.p. at zero time. After 2 hrs, aspirin and sample (compound in Example 1) were orally given to mouse.

[11] = final concentration 2.5 × 10^-3 M
[12] = final concentration 2.5 × 10^-4 M
[13] = final concentration 6.3 × 10^-5 M
[14] = final concentration 1.3 × 10^-5 M

Structure (SMILES): CC(=O)Oc1ccccc1C(=O)O [Aspirin, Acetylsalicylic acid, reference compound]
- % Inhibition of Malondialdehyde (MDA) Generation [1, 11]: 8.4 ± 4.2%
- % Inhibition of Malondialdehyde (MDA) Generation [1, 12]: 0.8 ± 0.4%
- % Inhibition of Malondialdehyde (MDA) Generation [1, 13]: 4.6 ± 2.3%
- Bleeding Time ([2]; 15 mg/kg P.O., day 2): 353.5 ± 74.7
- Bleeding Time ([2]; 15 mg/kg P.O., day 4): 372.7 ± 50.1
- Bleeding Time ([2]; 15 mg/kg P.O., day 6): 516.6 ± 119.4
- Bleeding Time ([2]; 15 mg/kg P.O., day 8): 493.6 ± 86.6
- Bleeding Time ([2]; 15 mg/kg P.O., day 10): 441.9 ± 46.2
- number of rats that exhibited gastric ulcer ([3]; 200 mg/kg P.O.): 5/5
- Ulcer Index ([3]; 200 mg/kg P.O.): 29.3 ± 6.15 mm
- gastric ulceration [3]: caused ulceration
- gastric ulceration induced by aspirin [4]: induces gastric ulceration
- pharmacological activities of aspirin [4]: antipyretic, antianalgesic, antioxidant and antithromobotic activities

Structure (SMILES): CC(=O)Oc1ccccc1C(=O)Oc1c(C)occc1=O [Compound A, maltol-acetylsalicylate ester]
- antithrombotic activity [5]: showed antithrombotic activity
- platelet aggregation ([5]; 10 units thrombin, naked eye, 1 hr): platelet aggregation was not observed
- % Increment of Edema ([6]; 300 mg/kg P.O., 0.5 hr): 46.5 ± 13.98%
- % Increment of Edema ([6]; 300 mg/kg P.O., 1.5 hr): 51.2 ± 9.47%
- % Increment of Edema ([6]; 300 mg/kg P.O., 2.5 hr): 56.1 ± 11.50%
- % Increment of Edema ([6]; 300 mg/kg P.O., 3.5 hr): 69.4 ± 13.89%
- % Increment of Edema ([6]; 300 mg/kg P.O., 4.5 hr): 81.9 ± 9.96%
- % Increment of Edema ([6]; 400 mg/kg P.O., 0.5 hr): 20.3 ± 6.85%
- % Increment of Edema ([6]; 400 mg/kg P.O., 1.5 hr): 33.8 ± 3.19%
- % Increment of Edema ([6]; 400 mg/kg P.O., 2.5 hr): 50.2 ± 6.43%
- % Increment of Edema ([6]; 400 mg/kg P.O., 3.5 hr): 58.4 ± 6.09%
- % Increment of Edema ([6]; 400 mg/kg P.O., 4.5 hr): 66.2 ± 8.52%
- anti-inflammatory effect ([6]; doses of 300 and 450 mg/kg, oral): no anti-inflammatory effect
- % Inhibition of Malondialdehyde (MDA) Generation [1, 14]: 4.3 ± 2.1%
- % Inhibition of Malondialdehyde (MDA) Generation [1, 11]: 91.9 ± 4.1%
- % Inhibition of Malondialdehyde (MDA) Generation [1, 12]: 58.9 ± 7.0%
- % Inhibition of Malondialdehyde (MDA) Generation [1, 13]: 2.3 ± 1.1%
- Bleeding Time ([2]; 15 mg/kg P.O., day 2): 339.6 ± 53.9
- Bleeding Time ([2]; 15 mg/kg P.O., day 4): 396.9 ± 56.0
- Bleeding Time ([2]; 15 mg/kg P.O., day 6): 429.4 ± 50.6
- Bleeding Time ([2]; 15 mg/kg P.O., day 8): 518.3 ± 102.8
- percent increment of bleeding time ([2]; 15 mg/kg P.O., day 10): 50%
- Bleeding Time ([2]; 15 mg/kg P.O., day 10): 472.1 ± 57.4
- percent increment of bleeding time ([2]; 45 mg/kg P.O., day 10): 48%
- Bleeding Time ([2]; 45 mg/kg P.O., day 10): 467.8 ± 55.9
- prolongation of the bleeding time ([2]; administered for 10 days): 50%
- side effects [7]: little side effects
- Ulcer Index ([3]; 100 mg/kg P.O.): 0 mm
- Ulcer Index ([3]; 200 mg/kg P.O.): 0 mm
- number of rats that exhibited gastric ulcer ([3]; 800 mg/kg P.O.): 1/6
- Ulcer Index ([3]; 800 mg/kg P.O.): 0.7 ± 0.61 mm
- gastric ulcer ([3]; at 5 times higher dose than aspirin): did not cause gastric ulcer
- gastric ulceration [3]: did not cause gastric ulceration
- LD50 ([8]; in vivo): 2140 mg/kg
- toxicity [8]: little toxicity
- protein stabilizing activity [9]: did not contain protein stabilizing activity
- antipyretic potency compared to aspirin [10]: five times lower than that of aspirin

Structure (SMILES): Cc1occc(=O)c1O [Maltol, maltol]
- % Inhibition of Malondialdehyde (MDA) Generation [1, 14]: 5.2 ± 2.6%
- % Inhibition of Malondialdehyde (MDA) Generation [1, 11]: 99.4 ± 0.3%
- % Inhibition of Malondialdehyde (MDA) Generation [1, 12]: 94.8 ± 2.6%
- % Inhibition of Malondialdehyde (MDA) Generation [1, 13]: 13.4 ± 6.7%

Structure (SMILES): CCCCC1C(=O)N(c2ccccc2)N(c2ccccc2)C1=O [Phenylbutazone, reference compound]
- % Increment of Edema ([6]; 100 mg/kg P.O., 0.5 hr): 11.8 ± 6.26%
- % Increment of Edema ([6]; 100 mg/kg P.O., 1.5 hr): 20.9 ± 6.88%
- % Increment of Edema ([6]; 100 mg/kg P.O., 2.5 hr): 21.9 ± 9.22%
- % Increment of Edema ([6]; 100 mg/kg P.O., 3.5 hr): 36.2 ± 14.45%
